According to article PMC6895199, “A new antiviral scaffold for human norovirus identified with computer-aided approaches on the viral polymerase” (Scientific Reports, 2019):
Where “and” joins values, the source holds several entries; their conditions need not be identical. Equal values may be shown once. Read-outs that look alike come from different tables or passages of the source.

How the values were obtained:
[1] = Crystal formation seen in the cell-based assays; format: physicochemical; conditions: observed with the HuNoV GI replicon results
HuNoV GI.1 replicon = assay: HuNoV GI replicon assay (HGT-NV cells, qRT-PCR); format: cell-based, human norovirus GI.1
Procedure: Given that in this system the gene encoding for the major capsid protein is replaced by a neomycin resistance gene, no new virus particles will be produced but the non-structural proteins are expressed and the replication of the genomic RNA can be studied.
Cells and virus: MNV (virus strain MNV-1.CW1) was propagated in RAW 264.7 cells grown in DMEM (Life Technologies, Gent, Belgium) supplemented with 10% or 2% FBS, 2 mM L-glutamine, 20 mM HEPES, 0.075 g/L sodium bicarbonate, 1 mM sodium pyruvate, 100 U penicillin/mL and 100 µg/mL streptomycin at 37 °C in a humidified atmosphere of 5% CO2. The human norovirus GI.1 replicon harboring gastric tumor-1 cell line (HGT-NV) (kindly provided by Dr. Ian Goodfellow, University of Cambridge) was maintained in DMEM supplemented with 10% FBS, 2mM L-glutamine, 0.075 g/L sodium bicarbonate and 1.0 mg/ml of Geneticin (G418; Life Technologies), at 37 °C in a humidified atmosphere of 5% CO2[34].
Antiviral assay with the HGT-NV replicon: The inhibitory effect of Compounds on human norovirus replication was assessed by quantification of the levels of HuNoV GI replicon RNA and of the reference (housekeeping) gene β-actin mRNA [by quantitative reverse transcription polymerase chain reaction (qRT-PCR)]. To this end, HGT cells (2000 cells/well) were seeded in 96-well plates, in complete DMEM without the selection marker G418. Following an incubation period of 24 h, a serial dilution of rupintrivir was added to the cultures. After 72 h of incubation, cell monolayers were washed with phosphate-buffered saline (PBS) and collected for quantification of RNA load by qRT-PCR. Intracellular RNA was extracted from cells using the cell-to-cDNA lysis buffer (Ambion, Life Technologies). For detection of HuNoV GI replicon RNA, forward (5′-CCG GCT ACC TGC CCA TTC-3′), reverse (5′-CCAGATCATCCTGATCGACAAG-3′) primers and probe (5′-FAM-ACATCGCATCGAGCGAGCACGTAC-TAMRA-3′) for the neomycin gene were used. For detection of β-actin mRNA, forward (5′-GGCATCCACGAAACTACCTT-3′), reverse (5′-AGCACTGTGTTGGCGTACAG-3′) primers and probe (5′-HEX-ATCATGAAGTGTGACGTGGACATCCG-BHQ1–3′) were used. One-step qRT-PCR was performed in a 20 µL reaction mixture containing 10 µl 2X iTaq Universal SYBR® Green one step reaction mix (Bio-rad, California, USA), 5.17 µl RNAse free water, 0.5 µl of iScript reverse transcriptase (Bio-rad, California, USA), 4 µl of the template RNA and either 300 nM of HuNoV GI replicon primers and probe, 300 nM of β-actin primers and 200 nM of probe. Cycling conditions were: reverse transcription at 50 °C for 10 min, initial denaturation at 95 °C for 3 min, followed by 40 cycles of denaturation at 95 °C for 15 s, annealing and extension at 60 °C for 30 seconds (Roche Lightcycler®96, Roche Diagnostics, Belgium). To determine the relative expression levels of HuNoV GI replicon RNA, β-actin was used as a normalizer and ratios were calculated using the Pfaffl method. The Expression Ratio (HuNoV GI Replicon/β-actin) was calculated as: Expression Ratio = (E HuNoV)^ΔCT, HuNoV (CC – TC)/(Eβ-actin)^ΔCT, β-actin (CC – TC), where E HuNoV and Eβ-actin represent the amplification efficiency (E = 10^–1/slope) for the HuNoV GI replicon and β-actin qRT-PCR reactions, respectively. ΔCT, HuNoV (CC – TC) is the Ct of untreated control cells (CC) minus the Ct of cells treated with a compound concentration (TC) obtained with HuNoV GI replicon primers and probe. ΔCT, β-actin (CC – TC) is the Ct of untreated control cells (CC) minus the Ct of cells treated with a compound concentration (TC) obtained with β-actin primers and probe. Efficiency values (E HuNoV and Eβ-actin) were determined for each qRT-PCR reaction.

MNV = MNV CPE reduction assay (MTS) in RAW 264.7 cells; format: cell-based, mouse norovirus (MNV-1.CW1); conditions: Norovirus, RAW264.7, in Mus musculus, Table 2, RAW 264.7, range 0.6–100 µM, at least three independent experiments
Outline: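 MNV-1.CW1-infected RAW 264.7 cells treated at eight concentrations (0.6–100 µM), 2′-C-methylcytidine as positive control. Viability read by MTS/PMS at OD 498 nm after 2 h; %CPE reduction normalised to uninfected and infected untreated cells, EC50 = concentration protecting 50% of cells from virus-induced CPE.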

[2] = Cytotoxicity by the MTS method on uninfected cells; format: cell-based; conditions: mouse, uninfected RAW 264.7 cells, Table 2, at least three independent experiments
Procedure: Cytotoxicity: The cytotoxicity of the Compounds was evaluated by the MTS method, by exposing uninfected cells to the same concentrations of compounds for 3 days. The %cell viability was calculated as (ODtreated/ODCC) × 100, where ODCC is the OD of uninfected untreated cells and ODtreated are uninfected cells treated with compound. The CC50 was defined as the compound concentration that reduces the number of viable cells by 50%[34].

HuNoV (GII.4) RdRp = assay: Counter-screen gel-shift assay of primed elongation activity (PE44-NoV template); format: biochemical, human norovirus; conditions: fixed concentration of 100 μM
Procedure: To further confirm RdRp inhibition and exclude any potential false positives from the first fluorescence RdRp assay, the eight molecules were then assessed using a gel-shift enzyme activity assay at a fixed concentration of 100 μM, following a procedure previously adopted by our research group.
Figure 5 A counter-screen gel-shift assay was used to confirm HuNoV (GII.4) RdRp inhibitory activity of compounds 2, 3, 34 and 35 (A), 4, 5, 6 (B) and 7 (C). The eight compounds were examined for inhibition of primed elongation activity. PE44-NoV RNA templates (32 nucleotides) were extended (44 nucleotides) by the RdRp in the absence of any test compounds (0.5% DMSO [vol/vol] negative control) or with test compounds at a fixed concentration of 100 μM. […] Full-length gels are presented in Supplementary Fig. S3.
Fluorescent RdRp activity assays were carried out as previously described[12],[29]. Briefly, RdRp activity was quantified by monitoring the formation of double-stranded RNA (dsRNA) from a single stranded homopolymeric template, poly(C) (Sigma Aldrich), using the fluorescent dye PicoGreen (Life Technologies, Carlsbad, CA, USA). RdRp assays were performed in 384-well plates, and each reaction mixture contained 400 ng enzyme, 45 μM GTP, 10 ng/μL poly(C) RNA, 2.5 mM MnCl2, 5 mM dithiothreitol, (DTT), 0.01% bovine serum albumin (BSA), and 0.005% Tween 20 in 20 mM Tris-HCl, pH 7.5, with a final reaction volume of 25 μL. The PPNDS and compound 1 were used as a positive controls. RdRps were incubated for 10 mins at 30 °C in the presence of the test compounds or the compound vehicle DMSO (0.5% vol/vol) before addition into the reaction mixture, which was then allowed to run 15 min at 30 °C then terminated with 10 mM EDTA, followed by PicoGreen staining and dsRNA quantitation. GraphPad Prism V6.05 (La Jolla, CA, USA) was used to plot the IC50 values. A secondary gel-based polymerase activity assay was used as a counter-screen as described below, to exclude the possibility of RdRp activity enhancement. Primed elongation activity was examined in a gel-based assay as previously described[12],[29] using the RNA template (PE44-NoV). Gels were imaged using BioRad (Hercules, CA, U.SA) Geldoc Universal Hood II, running BioRad Image Lab software, V4.1, build 16.

[3] = similar MNV cell-based assay; cited from earlier work

Structure (SMILES): O=C(NC(=S)Nc1ccc(N2CCN(S(=O)(=O)c3ccccc3)CC2)cc1)c1ccccc1 [Compound 60, N-((4-(4-(Phenylsulfonyl)piperazin-1-yl)phenyl)carbamothioyl)benzamide]
- concentration from which crystals form [1]: ≥ 25 µM
- EC50 values (column head printed 'M') (HuNoV GI.1 replicon; HuNoV GI replicon in HGT-1 cells, 72 h, replicon RNA by qRT-PCR): low micromolar range
- EC50 (HuNoV GI.1 replicon; Norwalk virus, HGT-1, 72 h, read-out: EC50 values (column head printed 'M'), HuNoV GI replicon in HGT-1 cells, replicon RNA by qRT-PCR): 8 µM
- EC50 (HuNoV GI.1 replicon; read-out: EC50 values (column head printed 'M'), HuNoV GI replicon in HGT-1 cells, 72 h, replicon RNA by qRT-PCR): 8.5 ± 2.1 µM
- EC50 (MNV): 66.6 ± 12.3 µM
- CC50 at 3 days [2]: > 100 µM

Structure (SMILES): O=C1NN(c2ccccc2)C(=O)/C1=C/c1ccc(-c2ccc(S(=O)(=O)Nc3ccccc3)cc2)o1 [Compound 1]
- inhibition of primed elongation activity (gel-shift) (HuNoV (GII.4) RdRp): complete inhibition
- CC50 [3]: ~64 µM and 62.8 µM
